Assay results reported in patent US8058242B2, “Chimeric proteins with natriuretic activity” (The University of Queensland, priority 2004, dated 2011).
“And” between values parts separate entries of the source, which are not always exact repeats. Equal entries are not always repeated. Positions of bridges follow the written chain, without caps; N, C: chain ends. Non-standard residues stand in square brackets, D forms with d. Residues, ends and D or L forms follow the SMILES beside them. No end group written: not given here. Cha = N[C@@H](CC1CCCCC1)C(=O)O; pGlu = O=C1CC[C@@H](C(=O)O)N1; Sec = N[C@@H](C[SeH])C(=O)O; Nle = CCCC[C@H](N)C(=O)O

Legend:
[1] = system: denuded aortic rings, GC A receptor; test: Relaxation of noradrenaline constricted endothelium-denuded aortic rings (Example 11); parameters: species or system rat; conditions: GC-A mediated
Description: Male Sprague Dawley rats were killed and the descending thoracic aorta rapidly removed and flushed with physiological solution. After being cleared of adhering fat and connective tissue, 5 mm rings were mounted under 10 g resting tension, between two stainless steel hooks, in organ baths (37° C.) containing carbogenated (95% O2 and 5% CO2) physiological salt solution of the following composition (mM): NaCl, 118.4; NaHCO3, 25; glucose, 11; KCl, 4.7; MgSO4, 1.2; KH2PO4, 1.2 and CaCl2, 2.5. The lower hook was attached to a tissue holder and the upper hook to a force displacement transducer (Grass FTO3). Where indicated endothelial cells were removed by gentle rubbing of the intimal surface with a wire. To confirm the presence or absence of endothelial cells, tissues were precontracted with a sub-maximal concentration of phenylephrine (0.3 μM) and the response to acetylcholine (ACh, 10 μM) observed. Ach-induced relaxation greater than 80% of maximum indicated the presence of endothelium; whereas Ach-induced relaxation less than 10% indicated the absence of endothelium. Ring preparations under resting tension were conditioned by two contraction/relaxation cycles with 40 mM KCl, contracted by a third application of 40 mM KCl and then relaxed with different doses of the venom peptides. Responses were expressed as a percentage relaxation of the precontraction by KCl.
In addition to the peptides tested in example 3, a series of 13 analogs corresponding to the 2a, 2b and 2c grouping of peptides were examined for their ability to dilate noradrenaline constricted aortic rings. The degree of constriction was expressed as a percentage of the KCl induced constriction. The aortic rings were prepared in a manner similar to the method described in example 3. […]. In each case there were at least 3 separate aortic rings tested per peptide and all were denuded of endothelium to ensure responses were confined to the GC A receptor.

[2] = biological target: T1, Natriuretic Peptide Receptor-A (NPR-A) signaling in MDCK cells (Canis lupus familiaris, UniProt A0A8I3MHU3); assay type: cell-based, canine; conditions: stimulation of cGMP accumulation in MDCK cells; for EC50: read-out: EC50 (M) ± Standard Error
T1 sequence (A0A8I3MHU3 32-1060): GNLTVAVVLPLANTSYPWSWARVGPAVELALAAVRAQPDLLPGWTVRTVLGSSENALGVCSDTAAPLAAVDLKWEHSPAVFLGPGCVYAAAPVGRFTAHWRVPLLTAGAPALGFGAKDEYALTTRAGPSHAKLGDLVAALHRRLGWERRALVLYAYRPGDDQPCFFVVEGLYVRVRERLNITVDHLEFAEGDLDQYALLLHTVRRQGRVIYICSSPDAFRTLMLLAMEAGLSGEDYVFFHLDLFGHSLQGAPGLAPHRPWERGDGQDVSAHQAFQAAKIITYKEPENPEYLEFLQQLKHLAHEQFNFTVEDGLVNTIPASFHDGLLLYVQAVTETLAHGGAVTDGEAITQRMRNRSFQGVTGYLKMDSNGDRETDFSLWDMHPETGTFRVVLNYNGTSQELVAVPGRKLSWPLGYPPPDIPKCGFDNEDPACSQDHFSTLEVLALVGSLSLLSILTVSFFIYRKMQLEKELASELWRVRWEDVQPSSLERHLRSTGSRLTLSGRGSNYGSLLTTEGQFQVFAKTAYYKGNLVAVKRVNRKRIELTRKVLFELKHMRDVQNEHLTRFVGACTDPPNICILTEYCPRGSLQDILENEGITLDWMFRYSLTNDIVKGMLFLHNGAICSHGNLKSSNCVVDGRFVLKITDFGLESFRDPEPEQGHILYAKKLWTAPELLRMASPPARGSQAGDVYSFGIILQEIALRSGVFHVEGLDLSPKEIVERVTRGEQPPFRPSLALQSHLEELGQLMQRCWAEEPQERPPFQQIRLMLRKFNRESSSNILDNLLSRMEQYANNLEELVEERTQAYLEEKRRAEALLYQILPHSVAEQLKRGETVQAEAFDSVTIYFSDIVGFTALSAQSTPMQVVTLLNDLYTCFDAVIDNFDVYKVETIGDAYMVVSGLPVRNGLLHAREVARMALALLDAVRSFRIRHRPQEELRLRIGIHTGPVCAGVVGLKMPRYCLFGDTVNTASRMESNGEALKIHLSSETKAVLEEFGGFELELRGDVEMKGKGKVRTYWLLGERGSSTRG

conscious rabbits = test: Blood pressure and heart rate in conscious rabbits, intravenous infusion dose-response (Example 8); conditions: for recovery of MAP, in words: 2 hours after infusion; for MAP at final dose / Recovery (MAP) / Recovery Delta SED (MAP) / Treatment Effect, change of mean blood pressure during the infusion: Table 10B; for Recovery (MAP) / Recovery Delta SED (MAP): after a 2 hour recovery period; for Treatment Effect, change of mean blood pressure during the infusion: final dose, groups 2B and 2C

Molecule	Mean relaxation SEM of denuded aortic rings expressed as % of KCl response [1]	−Log10 EC50 (pEC50) ± Standard Error [2]	EC50 [2]	recovery of MAP, in words (conscious rabbits)	MAP at final dose (conscious rabbits)	Recovery (MAP) (conscious rabbits)	Recovery Delta SED (MAP) (conscious rabbits)	Treatment Effect, change of mean blood pressure during the infusion (conscious rabbits)
CC[C@H](C)[C@H](NC(=O)[C@H](CCCCN)NC(=O)[C@H](CO)NC(=O)[C@H](CC(=O)O)NC(=O)[C@@H](N)CO)C(=O)NCC(=O)N[C@@H](CC(N)=O)C(=O)NCC(=O)N[C@H]1CSSC[C@@H](C(=O)N[C@@H](CC(N)=O)C(=O)N[C@@H](CCCNC(=N)N)C(=O)N[C@H](C(=O)N[C@@H](CCSC)C(=O)N[C@@H](CCC(N)=O)C(=O)N[C@@H](CC(N)=O)C(=O)N2CCC[C@H]2C(=O)N2CCC[C@H]2C(=O)N[C@@H](CCCCN)C(=O)N[C@@H](CCCCN)C(=O)N[C@@H](Cc2ccccc2)C(=O)N[C@@H](CO)C(=O)NCC(=O)N[C@@H](CCC(=O)O)C(=O)O)[C@@H](C)CC)NC(=O)CNC(=O)[C@H](CC(C)C)NC(=O)CNC(=O)[C@H](CO)NC(=O)[C@H](C(C)C)NC(=O)[C@H](CO)NC(=O)CNC(=O)[C@H]([C@@H](C)CC)NC(=O)[C@H](CCCNC(=N)N)NC(=O)[C@H](CC(=O)O)NC(=O)[C@H](CC(C)C)NC(=O)[C@@H]2CCCN2C(=O)[C@H](Cc2ccccc2)NC(=O)CNC(=O)[C@H](CC2CCCCC2)NC1=O [TNPc Cha-10] (H-SDSKIGNGC[Cha]GFPLDRIGSVSGLGCNRIMQNPPKKFSGE-OH; disulfide 9-25; N-terminus assumed)	64.2 ± 4.2%	7.84	1.44e-08 M	partially recovered	67.3 mm Hg	76.5 mm Hg	9.1 ± 3.9 mm Hg	−10.8 mm Hg
CC[C@H](C)[C@@H]1NC(=O)[C@H](CCCNC(=N)N)NC(=O)[C@H](CC(=O)O)NC(=O)[C@H](CC(C)C)NC(=O)[C@@H]2CCCN2C(=O)[C@H](Cc2ccccc2)NC(=O)CNC(=O)[C@H](Cc2ccccc2)NC(=O)[C@@H](NC(=O)[C@@H]2CCCN2C(=O)[C@H](CC(=O)O)NC(=O)[C@H](Cc2ccc(O)cc2)NC(=O)[C@H](CCCCN)NC(=O)[C@@H](NC(=O)[C@@H](N)CCC(=O)O)C(C)C)CSSC[C@@H](C(=O)N[C@@H](CC(N)=O)C(=O)N[C@@H](CCCNC(=N)N)C(=O)N[C@H](C(=O)N[C@@H](CCSC)C(=O)N[C@@H](CCC(N)=O)C(=O)N[C@@H](CC(N)=O)C(=O)N2CCC[C@H]2C(=O)N2CCC[C@H]2C(=O)N[C@@H](CCCCN)C(=O)N[C@@H](CCCCN)C(=O)N[C@@H](Cc2ccccc2)C(=O)N[C@@H](CO)C(=O)NCC(=O)N[C@@H](CCC(=O)O)C(=O)O)[C@@H](C)CC)NC(=O)CNC(=O)[C@H](CC(C)C)NC(=O)CNC(=O)[C@H](CO)NC(=O)[C@H](C(C)C)NC(=O)[C@H](CO)NC(=O)CNC1=O [TNPc DTT] (H-EVKYDPCFGFPLDRIGSVSGLGCNRIMQNPPKKFSGE-OH; disulfide 7-23; N-terminus assumed)	58.9 ± 6.7%	7.723 ± 0.1425	2.12e-08 M	partially recovered	58.6 mm Hg	70.3 mm Hg	11.7 ± 5.2 mm Hg	−12.4 mm Hg
CC[C@H](C)[C@H](NC(=O)[C@H](CCCCN)NC(=O)[C@H](CO)NC(=O)[C@H](CC(=O)O)NC(=O)[C@@H](N)CO)C(=O)NCC(=O)N[C@@H](CCCCN)C(=O)NCC(=O)N[C@H]1CSSC[C@@H](C(=O)N[C@@H](CC(N)=O)C(=O)N[C@@H](CCCNC(=N)N)C(=O)N[C@H](C(=O)N[C@@H](CCSC)C(=O)N[C@@H](CCC(N)=O)C(=O)N[C@@H](CC(N)=O)C(=O)N2CCC[C@H]2C(=O)N2CCC[C@H]2C(=O)N[C@@H](CCCCN)C(=O)N[C@@H](CCCCN)C(=O)N[C@@H](Cc2ccccc2)C(=O)N[C@@H](CO)C(=O)NCC(=O)N[C@@H](CCC(=O)O)C(=O)O)[C@@H](C)CC)NC(=O)CNC(=O)[C@H](CC(C)C)NC(=O)CNC(=O)[C@H](CO)NC(=O)[C@H](C(C)C)NC(=O)[C@H](CO)NC(=O)CNC(=O)[C@H]([C@@H](C)CC)NC(=O)[C@H](CCCNC(=N)N)NC(=O)[C@H](CC(=O)O)NC(=O)[C@H](CC(C)C)NC(=O)[C@@H]2CCCN2C(=O)[C@H](Cc2ccccc2)NC(=O)CNC(=O)[C@H](Cc2ccccc2)NC1=O [TNPc K7] (H-SDSKIGKGCFGFPLDRIGSVSGLGCNRIMQNPPKKFSGE-OH; disulfide 9-25; N-terminus assumed)	50% and 46.1 ± 13.5%	7.443 ± 0.2700	5.28e-08 M	did not recover after 2 hours	59.0 mm Hg	62.4 mm Hg	3.4 ± 1.9 mm Hg	−14.1 mm Hg
SDSKIGNGUFGFPLDRIGSVSGLGUNRIMQNPPKKFSGE (SDSKIGNG[Sec]FGFPLDRIGSVSGLG[Sec]NRIMQNPPKKFSGE; ends and bridges not checked) [TNPc diseleno]	60.5 ± 9.6%			did not recover after 2 hours	61.0 mm Hg	65.8 mm Hg	4.8 ± 0.3 mm Hg	−12.6 mm Hg
ZSDSKIGNGCFGFPLDRIGSVSGLGCNRIMQNPPKKFSGE ([pGlu]SDSKIGNGCFGFPLDRIGSVSGLGCNRIMQNPPKKFSGE; disulfide 10-26 (inferred); not fully specified; ends not checked) [TNPc Z0]	61.5 ± 5.5%			partially recovered	63.3 mm Hg	72.2 mm Hg	9.0 ± 1.0 mm Hg	−11.0 mm Hg
SDSKIGNGCFGFPLDRIGSVSGLGCNRInQNPPKKFSGE (SDSKIGNGCFGFPLDRIGSVSGLGCNRI[Nle]QNPPKKFSGE; disulfide 9-25 (inferred); ends not checked) [TNPc Nle]	61.0 ± 2.5%			partially recovered	53.4 mm Hg	64.5 mm Hg	11.0 ± 3.0 mm Hg	−13.6 mm Hg
